The text below walks through data of patent publication US8883856B2, “Compositions and methods for the treatment of inflammatory diseases using topoisomerase inhibitors” (priority 2000, dated 2014).

Values after ≈ are worked out from the molar mass of the structure shown. Read-outs that look alike come from different tables or passages of the source.

One experiment relates to caspase 3. The experiment can be described thus: Caspase 3 activation in neutrophils (caspACE assay system). In kind it is cell-based, human. The text has this:
(§1) The inflammation associated with many forms of arthritis is thought to arise from the presence of large numbers of immune cells, such as neutrophils, in the synovial joints of humans. The extended inflammation associated with crystal induced arthritis arises from the interaction of neutrophils with crystals in the synovial joint. One reason the extended duration of the inflammation in this disease may be due to the inhibition of neutrophil apoptosis by crystals. This inhibition may result in the neutrophils remaining in the joint for extended periods. Compounds that overcome this crystal induced suppression of neutrophil apoptosis therefore allow the more rapid clearance of these cells from the joint with the appropriate abatement of inflammation. The process of apoptosis involves the endonuclease driven cleavage of DNA into fragments which may be visualized as a ladder of bands in an agarose gel electrophoresis experiment. Other assays that may be used include caspase 3 quantitation or measurements of cytoplasmic DNA concentration. […] Agents that inhibit caspase activation levels or reduce cytoplasmic DNA are pro-survival (potentially inflammatory) and agents that promote are pro-apoptotic and anti-inflammatory. The use of these methods and their role in neutrophil affected inflammation is described in detail in Tudan et al. J Rheumatol. 27 p 2463-72. 2000.
(§2) Methods: Agarose gel banding/laddering of 180 base pairs: Neutrophils were separated from fresh human blood by standard methods (dextran sedimentation and ficoll paque centrifugation) and suspended in buffer at a concentration of 1×10^6 cells/ml. The cells were then incubated with crystals of calcium pyrophosphate dihydrate (CPPD) for 1 hours at 37° C. The cells were then incubated with or without camptothecin (0.1 uM) for 4 hours at 37° C. Neutrophil aliquots (1×10^6 cells) from different conditions were resuspended in 480 μl of lysis buffer (0.6% SDS, 10 mM Tris, 1 mM EDTA (pH 7.0)) and after vigorous mixing were allowed to sit on ice for 20 min after addition of 120 μl of 5M NaCl. In caspase 3 and DNA fragmentation assays a milder detergent (Triton) was used to lyse only the plasma membrane of the cells so that cytoplasmic contents (caspase 3 or DNA fragments) could be assayed. Samples were sedimented at 14,000 rpm at 4° C. for 20 min. The pellet was dried and resuspended in phenol:chloroform. Four hundred fifty μl of the upper phase was added to a new tube, which was then charged with 950 μl of […] and held at −20° C. for 10 min. The DNA was sedimented at 14,000 rpm (4° C.) and carefully washed in 75% ethanol without disturbing the pellet. The DNA was dried at 37° C. and then resuspended in 20 μl sample buffer (50% TBE with 1 μl of 1 ng/ml RNase A (Pharmacia)). The samples were vortexed and allowed to stand at 37° C. for 10 min. Five μl of loading dye (20% Ficoll Paque (Pharmacia), 0.1% bromophenol blue, 0.1% xylene cyanole) was added. Electrophoresis was carried out in 2% agarose at 80 mA, and the gel was then stained with ethidium bromide (Pharmacia) and photographed under U.V. illumination.
Caspase 3 activation was assayed using a commercial kit for this enzyme (caspACE assay system, Promega Scientific) and cyotplasmic DNA was assayed using a commercial kit (Cell death detection ELISA-Boehringer—Mannheim).

In a further experiment the test system is neutrophils. The experiment can be described thus: Cytoplasmic DNA fragmentation in neutrophils (Cell death detection ELISA). In kind it is cell-based, human.
Excerpt: as §1
as §2, with “The samples were vortexed and allowed to stand at 37° C. for 10 min. Five μl of loading dye (20% Ficoll Paque (Pharmacia), 0.1% bromophenol blue, 0.1% xylene cyanole) was added. Electrophoresis was carried out in 2% agarose at 80 mA, and the gel was then stained with ethidium bromide (Pharmacia) and photographed under U.V. illumination.” left out
A general note: An ELISA detects its analyte on a solid surface through an enzyme-linked reagent.

In experiment [1] the test system is smooth muscle cells (A7r5 rat embryonic thoracic aorta). The experiment can be described thus: MTT proliferation/cytotoxicity assay, smooth muscle cells. In kind it is cell-based. The conditions noted are these: A7R5, 48 h, read-out: inhibitory concentration that gave 50% effect on proliferation (IC50), smooth muscle cells. The protocol: (§3) Proliferation was determined using the MTT proliferation/cytotoxicity assay.
(§4) On day one, 1500-2000 smooth muscle cells (A7r5 rat embryonic thoracic aorta) or synoviocytes (HIG.82 rabbit) were plated per well on a 96-well plate, leaving the first column free of cells (blank). The plate was placed back into the 37° C., CO2 incubator. The following day camptothecin was added at various concentrations. No drugs were added to the first column (blank) and the second column (untreated column) for control. The cells were exposed for 24, 48, and 72 hours. At the end of the exposure period, 50 μl of dimethylthiazol diphenyltetrazolium bromide salt (MTT) dissolved in media was added and allowed to incubate for 4 hours at 37° C. The medium was then aspirated and 200 μl of dimethyl sulfoxide was added. The plate was agitated for 30 minutes and the absorbance read at 562 nm. The optical density measurement was converted to number of cells using a standard plot of optical density with known number of cells and cell viability was expressed as % growth (this value is the % of the control cells).

In another experiment the test system is human neutrophils. The experiment can be described thus: Neutrophil chemiluminescence (neutrophil activation). In kind it is cell-based. The settings on record: Homo sapiens, Neutrophil; activation by MSUM crystals; read-out: IC 50, inhibition of neutrophil chemiluminescence. Here is the method: Freshly prepared human neutrophils were incubated with the compound followed by stimulation of the cells with either plasma opsonized CPPD crystals, the bacterial chemoattractant, fMLP or the phorbol ester, PMA. Stimulation (or activation) of the cells induced superoxide anion generation which could be measured by the emission of light (chemiluminescence). Inhibition of neutrophil function was then determined by inhibition of chemiluminescence. Hanks buffered salt solution (HBSS) pH 7.4 was used throughout the study. All chemicals were purchased from Sigma Chemical Co. (St. Louis, Mo.) unless otherwise stated. All procedures were performed at 37° C. unless otherwise stated. CPPD (triclinic) crystals were prepared and characterized as previously reported (Jackson J K et al., J Rheumatol, 24: 341-348, 1996). The size distribution of the crystals was approximately 33% less than […]. Opsonization of crystals was carried out using 50% heparinized plasma and concentrations of 50 mg of CPPD in 1 mL of 50% plasma. Crystals were incubated with diluted plasma for 30 min at 37° C., centrifuged at 1000×g, then washed in HBSS and recentrifuged. Neutrophils were prepared from freshly collected, human, citrated whole blood. Briefly, 400 mL of blood were mixed with 80 mL of 4% dextran T500 (Pharmacia LKB, Biotechnology AB Uppsala, Sweden) in HBSS and allowed to settle for 1 h. Plasma was collected continuously and 5 mL applied to 5 mL Ficoll Paque (Pharmacia) in 15 mL polypropylene tubes (Corning, N.Y.). Following centrifugation at 500×g for 30 min, the neutrophil pellets were washed free of erythrocytes by 20 s of hypotonic shock. Neutrophils were resuspended in HBSS, kept on ice and used for experiments within 3 h. Neutrophil viability and purity was always greater than 90%.
A stock solution of drug was diluted in DMSO to give various concentrations of drug. Equal volumes of these solutions were added to neutrophils at 5×10^6 cells per mL under mild vortexing to achieve final concentrations with a final DMSO concentration of 0.25%. This DMSO concentration found to have no effect on control cell responses. Cells were incubated for 15 minutes at 37° C. before addition to crystals, fMLP or PMA.
Chemiluminescence studies were performed at a cell concentration of 5×10^6 cells per mL in HBSS with CPPD (50 mg/mL). In all experiments 0.5 mL of cells were added to 25 mg of CPPD or 1 uM fMLP (and 0.5 uM cytochalasin B) or 0.5 uM PMA in 1.5 ml Eppendorf tubes. To the tubes were added 10 uL of luminol dissolved in 25% DMSO in HBSS to give a final concentration of 1 μM and the samples were mixed to initiate neutrophil activation. Chemiluminescence was monitored using an LKB Luminometer (Model 1250) at 37° C. with shaking immediately prior to measurements to resuspend the crystals. Control tubes contained cells, drug and luminol (crystals absent).

The subject of experiment [2] is synoviocytes (HIG.82 rabbit). Nature of the experiment: MTT proliferation/cytotoxicity assay, synoviocytes. In kind it is cell-based. The settings on record: Oryctolagus cuniculus, 48 h, read-out: inhibitory concentration that gave 50% effect on proliferation (IC50), synoviocytes. Here is the method:
as §3, §4

The test system of a further experiment is surgical adhesions. In kind it is in vivo. The conditions noted are these: drug-loaded crosslinked HA films (camptothecin 2.5%, doxorubicin 2.5%, beta-lapachone 5%, curcumin 10%), rats. The protocol:
The rat caecal-sidewall adhesion model was used to test efficacy of crosslinked hyaluroinc acid (HA) polymeric films loaded with one of the following compounds; camptothecin 2.5% loading (w/w to polymer), curcumin 10%, doxorubicin 2.5%, beta-lapachone at 5% or unloaded-no-drug control. Films of 2-2.5 cm^2 were prepared with each drug by the method described in example 10. ETO sterilized, and divided in half at the time of surgical implantation. Sham surgeries omitted the application of HA film as separate controls.
Sprague Dawley rats, 15 male and 15 female, weighing 250-400 g were anaesthetized with Halothane (5%) and maintained, by nose cone, on 1.5-2% Halothane. Surgeries were conducted under sterile conditions. The abdomen was shaved, scrubbed with an antiseptic wash, and opened at the linea alba with a 3 cm incision. A region of the abdominal cavity immediately opposite the large bowel was isolated with bowel clamps, and a #11 scalpel blade was used to score a section of the transversus muscle, describing a rectangle 1×1.5 cm. The muscle was stripped from the peritoneal sidewall with forceps, and minor bleeding was arrested by tamponade. The large bowel was then externalized with sterile swabs, and caecal contents evacuated into the large bowel. Both surfaces of the caecum were stroked, 45 times on each side, with a #10 scalpel blade to produce erythema and punctated bleeding. Each stroke spanned the caecal diameter (approximately 1 cm), and extended along 1.5 cm of the caecal extremity. In only one case did this abrasion procedure cause sustained bleeding requiring ligation. Following 90 blade strokes, the integrity of the tissue was confirmed, and caecum and large bowel were replaced in the pelvis.
The film was laid over the rectangular sidewall abrasion (except in the case of sham surgeries), covering the area of damaged tissue. The abraded caecum, relocated in its previous orientation, was than overlaid such that the entire sidewall wound and film were covered by it. Four tacking sutures were placed at the outer extremities of the abraded area of the caecum securing it to the intact peritoneal sidewall immediately outside the rectangular wound area. The abdomen was closed in two layers, and antibiotics administered intramuscularly before the animal regained consciousness.
. Adhesions over, and adjacent to the caecum were rated according to the following findings: 0: No adhesions connecting caecum to sidewall wound; 1: Filmy or stranded were separable by blunt dissection; 2: Cohesive adhesions attaching the caecum to the sidewall were separable by aggressive blunt dissection; 3: Adhesions inseparable without cutting, or without tearing/damaging caecum. Fractions were assigned where a variety of ratings seemed applicable.

In the case of `COC(=O)[C@@H]1c2cc3c(c(O)c2[C@@H](O[C@@H]2O[C@@H](C)[C@H](OC)[C@@](C)(OC)[C@H]2OC)C[C@]1(C)O)C(=O)c1c(O)cc2c(c1C3=O)O[C@@H]1O[C@@]2(C)[C@H](O)[C@@H](N(C)C)[C@@H]1O` [nogalamycin], the “caspase 3 activation in neutrophils” value with caspase 3 is “induced an increase in the activation of caspase 3 levels”.

For `O=C1c2c(O)ccc(O)c2C(=O)c2c(NCCNCCO)ccc(NCCNCCO)c21` [mitoxantrone], in the experiment on neutrophils, the “cytoplasmic DNA fragments in neutrophils” value was “significant increase in cytoplasmic DNA”. In addition, in the experiment with caspase 3, the “caspase 3 activation in neutrophils” value is recorded as “induced an increase in the activation of caspase 3 levels”.

For the compound `O=C1C=CC(=O)c2c(O)cccc21` [juglone], the IC50 in experiment [1] was 2 µM; with human neutrophils it was 0.5 to 1 µg/mL (≈ 2.87 to 5.74 µM); in experiment [2], 4.3 µM.

Regarding `COc1cc(/C=C/C(=O)CC(=O)/C=C/c2ccc(O)c(OC)c2)ccc1O` [curcumin], the “surgical adhesion formation, in words” value is listed as “no inhibition of adhesion formation” with surgical adhesions and “no inhibitory effect on surgical adhesion formation in rats” with surgical adhesions (listed as circumin).
